# In PubChem BioAssay AID330 (DTP/NCI, 2004):
# Values joined by “and” are separate entries in the source; they are usually repeats but may differ in a detail not shown here. Identical values can stand only once. Toxic doses and inconclusive results are not listed.
# Tested on: P388 leukemia ip, CD2F1 mice, survival T/C
# Assay: NCI In Vivo Anticancer Drug Screen. Data for tumor model P388 Leukemia (intraperitoneal) in CD2F1 (CDF1) mice
# Settings: endpoint: median survival time, higher = longer survival
# How it was run: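 Mice carrying the transplanted tumor received test compound or vehicle. Survival was recorded in each group, and the value is the treated-group measurement divided by that of the vehicle-treated control group.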
# [1] = dose: 50.0 mg/kg/injection, schedule: Q01DX009 (ip), vehicle: Klucel (hydroxypropylcellulose) (HPC)
# [2] = dose: 100.0 mg/kg/injection, schedule: Q01DX009 (ip), vehicle: Klucel (hydroxypropylcellulose) (HPC)
# [3] = dose: 200.0 mg/kg/injection, schedule: Q01DX009 (ip), vehicle: Klucel (hydroxypropylcellulose) (HPC)
# [4] = dose: 50.0 mg/kg/injection, schedule: Q04DX003 (ip), vehicle: Klucel (hydroxypropylcellulose) (HPC)
# [5] = dose: 100.0 mg/kg/injection, schedule: Q04DX003 (ip), vehicle: Klucel (hydroxypropylcellulose) (HPC)
# [6] = dose: 200.0 mg/kg/injection, schedule: Q04DX003 (ip), vehicle: Klucel (hydroxypropylcellulose) (HPC)
# [7] = dose: 60.0 mg/kg/injection, schedule: Q01DX005 (ip), vehicle: saline with Tween-80
# [8] = dose: 120.0 mg/kg/injection, schedule: Q01DX005 (ip), vehicle: saline with Tween-80
# [9] = dose: 240.0 mg/kg/injection, schedule: Q01DX005 (ip), vehicle: saline with Tween-80
# [10] = dose: 50.0 mg/kg/injection, schedule: Q01DX005 (ip), vehicle: saline
# [11] = dose: 100.0 mg/kg/injection, schedule: Q01DX005 (ip), vehicle: saline
# [12] = dose: 200.0 mg/kg/injection, schedule: Q01DX005 (ip), vehicle: saline
# [13] = dose: 50.0 mg/kg/injection, schedule: Q01DX005 (ip), vehicle: Klucel (hydroxypropylcellulose) (HPC)
# [14] = dose: 100.0 mg/kg/injection, schedule: Q01DX005 (ip), vehicle: Klucel (hydroxypropylcellulose) (HPC)
# [15] = dose: 200.0 mg/kg/injection, schedule: Q01DX005 (ip), vehicle: Klucel (hydroxypropylcellulose) (HPC)
compound,measurement,setting,value
COC1/C=C/C=C(/C)Cc2cc(O)c(Cl)c(c2)N(C)C(=O)CC(OC(=O)C(C)C)C2(C)OC2C(C)C2CC1(O)NC(=O)O2 (centres undefined),T/C,"dose: 50.0 micrograms/kg/injection, schedule: Q01DX009 (ip), vehicle: saline + alcohol",153 % of control
same,T/C,"dose: 100.0 micrograms/kg/injection, schedule: Q01DX009 (ip), vehicle: saline + alcohol",177 % of control and 190 % of control
same,T/C,"dose: 200.0 micrograms/kg/injection, schedule: Q01DX009 (ip), vehicle: saline + alcohol",185 % of control and 221 % of control
same,T/C,"dose: 400.0 micrograms/kg/injection, schedule: Q01DX009 (ip), vehicle: saline + alcohol",177 % of control and 230 % of control
same,T/C,"dose: 800.0 micrograms/kg/injection, schedule: Q01DX009 (ip), vehicle: saline + alcohol",192 % of control and 205 % of control
same,T/C,"dose: 1000.0 micrograms/kg/injection, schedule: Q01DX009 (ip), vehicle: saline + alcohol",182 % of control
O=C(O)CNO,T/C,[1],101 % of control
same,T/C,[2],105 % of control
same,T/C,[3],104 % of control
same,T/C,"dose: 400.0 mg/kg/injection, schedule: Q01DX009 (ip), vehicle: Klucel (hydroxypropylcellulose) (HPC)",110 % of control
COc1ccc(/C(C#N)=C\c2ccc(N(C)C)cc2)cc1,T/C,[4],108 % of control
same,T/C,[5],105 % of control
same,T/C,[6],106 % of control
same,T/C,"dose: 400.0 mg/kg/injection, schedule: Q04DX003 (ip), vehicle: Klucel (hydroxypropylcellulose) (HPC)",105 % of control
NS(=O)(=O)c1ccc(NC(=O)Nc2c(Cl)cccc2Cl)cc1,T/C,[1],96 % of control
same,T/C,[2],87 % of control
same,T/C,[3],95 % of control
N#Cc1c(Cl)c(Cc2ccccc2)c(Cl)n2c1nc1ccccc12,T/C,[7],100 % of control
same,T/C,[8],108 % of control
same,T/C,[9],99 % of control
CC[C@@]1(O)C[C@H]2CN(CCc3c([nH]c4ccccc34)[C@@](C(=O)OC)(c3cc4c(cc3OC)N[C@H]3[C@@](O)(C(=O)OC)[C@H](OC(C)=O)[C@]5(CC)C=CCN6CC[C@]43[C@@H]65)C2)C1,T/C,"dose: 16.0 mg/kg/injection, schedule: Q01DX001 (ip), vehicle: water",153 % of control and 164 % of control
CCNS(=O)(=O)c1ccc2c(c1)nc(SC)n2CC,T/C,"dose: 60.0 mg/kg/injection, schedule: Q01DX005 (ip), vehicle: Klucel (hydroxypropylcellulose) (HPC)",104 % of control
same,T/C,"dose: 120.0 mg/kg/injection, schedule: Q01DX005 (ip), vehicle: Klucel (hydroxypropylcellulose) (HPC)",105 % of control
same,T/C,"dose: 240.0 mg/kg/injection, schedule: Q01DX005 (ip), vehicle: Klucel (hydroxypropylcellulose) (HPC)",104 % of control
CC(=O)Oc1ccc(C2COc3cc(OC(C)=O)c(OC(C)=O)cc3C2)cc1 (centres undefined),T/C,[7],104 % of control
same,T/C,[8],104 % of control
same,T/C,[9],104 % of control
O=C(O)/C(Cl)=C(Cl)\C=N\c1ncn[nH]1,T/C,"dose: 6.25 mg/kg/injection, schedule: Q01DX005 (ip), vehicle: Klucel (hydroxypropylcellulose) (HPC)",104 % of control
same,T/C,"dose: 12.5 mg/kg/injection, schedule: Q01DX005 (ip), vehicle: Klucel (hydroxypropylcellulose) (HPC)",100 % of control
same,T/C,"dose: 25.0 mg/kg/injection, schedule: Q01DX005 (ip), vehicle: Klucel (hydroxypropylcellulose) (HPC)",112 % of control
CNC(C)Cc1ccccc1 (centres undefined) (tested in a mixture with another compound),T/C,"dose: 6.25 mg/kg/injection, schedule: Q01DX005 (ip), vehicle: saline with Tween-80",112 % of control
same,T/C,"dose: 12.5 mg/kg/injection, schedule: Q01DX005 (ip), vehicle: saline with Tween-80",103 % of control
same,T/C,"dose: 25.0 mg/kg/injection, schedule: Q01DX005 (ip), vehicle: saline with Tween-80",104 % of control
same,T/C,"dose: 50.0 mg/kg/injection, schedule: Q01DX005 (ip), vehicle: saline with Tween-80",116 % of control
CCCCCCCCC1OC1CCCCCCCC(=O)O (centres undefined),T/C,"dose: 3.13 mg/kg/injection, schedule: Q01DX009 (ip), vehicle: saline with Tween-80",112 % of control
same,T/C,"dose: 6.25 mg/kg/injection, schedule: Q01DX009 (ip), vehicle: saline with Tween-80",100 % of control
same,T/C,"dose: 12.5 mg/kg/injection, schedule: Q01DX009 (ip), vehicle: saline with Tween-80",103 % of control
same,T/C,"dose: 25.0 mg/kg/injection, schedule: Q01DX009 (ip), vehicle: saline with Tween-80",95 % of control
N=C(N)c1ccc(O)cc1,T/C,[10],102 % of control
same,T/C,[11],111 % of control
same,T/C,[12],112 % of control
CC1c2ccccc2-c2ccccc2N1C(=O)c1cccc(C(=O)N2c3ccccc3-c3ccccc3C2C)n1 (centres undefined),T/C,[7],93 % of control
same,T/C,[8],98 % of control
same,T/C,[9],90 % of control
C=CCC(C(=O)OC)c1ccc(F)cc1 (centres undefined),T/C,"dose: 0.06 mg/kg/injection, schedule: Q01DX009 (ip), vehicle: saline",111 % of control
same,T/C,"dose: 0.13 mg/kg/injection, schedule: Q01DX009 (ip), vehicle: saline",102 % of control
same,T/C,"dose: 0.25 mg/kg/injection, schedule: Q01DX009 (ip), vehicle: saline",101 % of control
same,T/C,"dose: 1.0 mg/kg/injection, schedule: Q01DX009 (ip), vehicle: saline",88 % of control
CCOC(=O)NC(NC(=O)OCC)c1cccc(F)c1,T/C,"dose: 100.0 mg/kg/injection, schedule: Q04DX003 (ip), vehicle: saline",99 % of control
same,T/C,"dose: 200.0 mg/kg/injection, schedule: Q04DX003 (ip), vehicle: saline",99 % of control
same,T/C,"dose: 400.0 mg/kg/injection, schedule: Q04DX003 (ip), vehicle: saline",93 % of control
O=C(O)Cc1cn2cc(Cl)ccc2n1,T/C,"dose: 100.0 mg/kg/injection, schedule: Q01DX001 (ip), vehicle: Klucel (hydroxypropylcellulose) (HPC)",102 % of control
same,T/C,"dose: 200.0 mg/kg/injection, schedule: Q01DX001 (ip), vehicle: Klucel (hydroxypropylcellulose) (HPC)",101 % of control
same,T/C,"dose: 400.0 mg/kg/injection, schedule: Q01DX001 (ip), vehicle: Klucel (hydroxypropylcellulose) (HPC)",95 % of control
O=C(O)C1SCCCS1,T/C,[7],100 % of control
same,T/C,[8],98 % of control
same,T/C,[9],100 % of control
CN=C(N)N/N=C(\c1ccccc1)c1ccc(Cl)cc1,T/C,"dose: 6.25 mg/kg/injection, schedule: Q04DX002 (ip), vehicle: saline with Tween-80",102 % of control
same,T/C,"dose: 12.5 mg/kg/injection, schedule: Q04DX002 (ip), vehicle: saline with Tween-80",109 % of control
same,T/C,"dose: 25.0 mg/kg/injection, schedule: Q04DX002 (ip), vehicle: saline with Tween-80",153 % of control
CC(=O)OC(C(=O)O)C(OC(C)=O)C(OC(C)=O)C(=O)O (centres undefined),T/C,"dose: 50.0 mg/kg/injection, schedule: Q01DX009 (ip), vehicle: saline",98 % of control
same,T/C,"dose: 100.0 mg/kg/injection, schedule: Q01DX009 (ip), vehicle: saline",101 % of control
same,T/C,"dose: 200.0 mg/kg/injection, schedule: Q01DX009 (ip), vehicle: saline",95 % of control
COC1(OC)C(=S)N(C2CCCCC2)C(=S)N1C1CCCCC1,T/C,[13],95 % of control
same,T/C,[14],95 % of control
same,T/C,[15],96 % of control
CCOC(=O)/C(N=Nc1ccccc1Cl)=C(\C)O,T/C,[13],101 % of control
same,T/C,[14],101 % of control
same,T/C,[15],101 % of control
CC(=O)NC(Cc1cccc(F)c1)C(=O)O (centres undefined),T/C,"dose: 1.56 mg/kg/injection, schedule: Q01DX009 (ip), vehicle: saline",111 % of control
same,T/C,"dose: 3.12 mg/kg/injection, schedule: Q01DX009 (ip), vehicle: saline",106 % of control
same,T/C,"dose: 6.25 mg/kg/injection, schedule: Q01DX009 (ip), vehicle: saline",107 % of control and 88 % of control
NC(=O)CNCC1Cc2ccccc21 (centres undefined),T/C,"dose: 60.0 mg/kg/injection, schedule: Q01DX005 (ip), vehicle: saline",102 % of control
same,T/C,"dose: 120.0 mg/kg/injection, schedule: Q01DX005 (ip), vehicle: saline",98 % of control
CN1C(C)(C)CC(C)(O)CC1(C)C,T/C,[10],91 % of control
same,T/C,[11],94 % of control
same,T/C,[12],106 % of control
FC(F)(F)c1ccc2c(c1)Nc1ccccc1S2,T/C,"dose: 12.5 mg/kg/injection, schedule: Q04DX003 (ip), vehicle: Klucel (hydroxypropylcellulose) (HPC)",100 % of control and 105 % of control
same,T/C,"dose: 25.0 mg/kg/injection, schedule: Q04DX003 (ip), vehicle: Klucel (hydroxypropylcellulose) (HPC)",103 % of control
same,T/C,[4],108 % of control and 109 % of control
same,T/C,[5],108 % of control and 118 % of control
same,T/C,[6],114 % of control and 116 % of control
N=C(N)SCC[n+]1cccc2cccc(O)c21,T/C,"dose: 100.0 mg/kg/injection, schedule: Q04DX002 (ip), vehicle: saline",98 % of control
same,T/C,"dose: 200.0 mg/kg/injection, schedule: Q04DX002 (ip), vehicle: saline",100 % of control
